Molecules are shown by their SMILES.

The experiment concerns neutrophil infiltration. The experiment is described as follows: Myeloperoxidase (MPO) assay of neutrophil infiltration in the inflamed paw. In kind it is in vivo, mice. Conditions: intraplantar pretreatment; 4 h after CRG injection. Here is the method:
Myeloperoxidase assay. Paw inflammation is associated with infiltration of neutrophils (polymorphonuclear cells), and myeloperoxidase (MPO) activity is often used to quantify neutrophil activation to evaluate the magnitude of paw inflammation. To determine MPO assay, fresh skin tissues were suspended in phosphate buffer and homogenized. The suspension was centrifuged and the supernatant was assayed for MPO activity using a MPO Activity Assay Kit (Northwest Life Science Specialties, LLC). Each reaction was performed according to manufacturer's protocol. Briefly, hypochlorous acid (HOCl) is formed from MPO catalyzed reaction between chloride and hydrogen peroxide. HOCl is rapidly trapped by β-amino acid taurine to form a stable oxidant taurine chloramine. Taurine chloramine is then allowed to react with 5-thio-2-nitrobenzoic acid (TNB). TNB has a chromophore that has maximal absorbance at 412 nm while its reaction product with taurin chloramine is colorless. The color change is detected by spectrophotometry. By following the decrease of absorbance at 412 nm, MPO activity is measured. One unit is the amount of MPO that can produce 1.0 nmole of taurine chloramine at pH 6.5 and 25° C. during 30 minutes in the presence of 100 mM chloride and 100 μM of hydrogen peroxide.

As for `CC[C@@H](O)/C=C/C=C\C[C@@H](O)/C=C/C=C/C=C\[C@@H](O)CCCC(=O)O` [RvE1, 5S,12R,18R-trihydroxyeicosapentaenoic acid], the “neutrophil infiltration (MPO activity)” value is given as “reducing”.

Values taken from patent US20120245229A1, “METHOD FOR TREATING NEUROPATHIC PAIN” (priority 2009, published 2012).
